One data set concerns the target T1, P-glycoprotein (P-gp) (Homo sapiens, UniProt P08183).
T1 construct: permeability and efflux ratio of epertinib across Caco-2 cell monolayers; endogenous in cells; host or cells: Caco-2
Description: P-gp substrate assessment. The following applies: from permeability and efflux ratio across Caco-2 cell monolayers. It counts as in vitro ADME.

A further data set has as its system EGFR. Details: method as in PMID 24837299. As to conditions: cited from earlier work.
The conditions of data set [1]: healthy volunteers, single oral 250 mg [14C]-lapatinib; cited from earlier work.

The text below walks through data of publication PMC5762859, “Distribution analysis of epertinib in brain metastasis of HER2-positive breast cancer by imaging mass spectrometry and prospect for antitumor activity” (Scientific Reports, 2018).

T1 sequence (P08183 whole entry): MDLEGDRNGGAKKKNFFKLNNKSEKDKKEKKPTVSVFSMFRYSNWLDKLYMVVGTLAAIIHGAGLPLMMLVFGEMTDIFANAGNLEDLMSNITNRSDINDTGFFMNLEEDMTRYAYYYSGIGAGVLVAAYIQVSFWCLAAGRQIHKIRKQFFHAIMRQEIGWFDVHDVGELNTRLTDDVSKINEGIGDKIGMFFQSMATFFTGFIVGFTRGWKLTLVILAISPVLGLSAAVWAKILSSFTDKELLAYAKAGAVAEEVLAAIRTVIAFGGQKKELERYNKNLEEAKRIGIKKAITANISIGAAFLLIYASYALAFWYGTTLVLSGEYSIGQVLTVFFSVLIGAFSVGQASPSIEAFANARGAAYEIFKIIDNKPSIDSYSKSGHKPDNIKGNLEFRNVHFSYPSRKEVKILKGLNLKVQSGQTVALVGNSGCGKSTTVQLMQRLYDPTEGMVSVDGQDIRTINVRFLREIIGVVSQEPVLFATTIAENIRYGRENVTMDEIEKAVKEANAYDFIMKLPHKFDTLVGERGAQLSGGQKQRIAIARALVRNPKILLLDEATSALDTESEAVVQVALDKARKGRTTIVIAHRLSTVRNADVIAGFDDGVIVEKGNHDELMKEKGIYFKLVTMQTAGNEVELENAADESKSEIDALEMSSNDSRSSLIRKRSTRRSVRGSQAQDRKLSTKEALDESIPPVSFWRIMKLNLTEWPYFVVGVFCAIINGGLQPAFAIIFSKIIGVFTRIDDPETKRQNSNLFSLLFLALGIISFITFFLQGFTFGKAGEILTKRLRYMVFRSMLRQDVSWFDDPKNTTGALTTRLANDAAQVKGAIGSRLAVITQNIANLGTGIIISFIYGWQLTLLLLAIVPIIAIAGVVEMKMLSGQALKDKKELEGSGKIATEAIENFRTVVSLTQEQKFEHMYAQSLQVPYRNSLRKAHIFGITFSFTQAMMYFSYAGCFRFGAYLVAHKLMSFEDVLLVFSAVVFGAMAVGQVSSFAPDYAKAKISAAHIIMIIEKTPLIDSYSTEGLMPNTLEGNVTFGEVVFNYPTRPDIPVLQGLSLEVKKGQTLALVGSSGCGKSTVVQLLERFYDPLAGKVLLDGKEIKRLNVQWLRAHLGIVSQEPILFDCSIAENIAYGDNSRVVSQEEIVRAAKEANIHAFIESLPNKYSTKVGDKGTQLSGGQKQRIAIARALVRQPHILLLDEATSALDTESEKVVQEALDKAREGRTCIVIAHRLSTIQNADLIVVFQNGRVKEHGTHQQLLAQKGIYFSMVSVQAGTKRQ

Consider `CC#CC(=NOCC1COCCN1)c1ccc2ncnc(Nc3ccc(OCc4cccc(F)c4)c(Cl)c3)c2c1` (stereo not drawn) [Epertinib], for which, at P-glycoprotein (P-gp), the P-gp substrate result is “not a substrate”. Also, in the data set on EGFR, the “Off-rate of dissociation compared with lapatinib” value is recorded as “slower off-rate of dissociation”.

For the compound `CS(=O)(=O)CCNCc1ccc(-c2ccc3ncnc(Nc4ccc(OCc5cccc(F)c5)c(Cl)c4)c3c2)o1` [Lapatinib, N-{3-chloro-4-[(3-fluorobenzyl)oxy]phenyl}-6-[5-({[2-(methylsulfonyl)ethyl]amino}methyl)-2-furyl]-4-quinazolinamine, reference compound], the “Mean plasma concentration of lapatinib at Cmax” value in data set [1] is recorded as 330 ng/mL.
